Assay results as given in article PMC8465315, “Molecular Umbrella as a Nanocarrier for Antifungals” (Molecules, 2021).
≈ marks a conversion by molar mass, not a printed value. Where two headings read alike, the source gives them in different places.

Experiments:
[1] = test system: pig liver esterase; test: HPLC-MS analysis of conjugate cleavage, model system with pig liver esterase; format: in vitro ADME; conditions: pig liver esterase 5 mg mL^−1; conjugate 150 µM; 30 °C; 0, 30, 120 min
Method: (§1) Conjugates 24a–d, containing the TML system, were tested for susceptibility to enzymatic cleavage in the model system with pig liver esterase and in cell-free extract prepared from C. albicans cells. Conjugate 35 containing the o-dithiobenzylcarbamoyl linker was tested in the model system with glutathione and in C. albicans cell-free extract.
(§2) Analysis of cleavage of the conjugates was performed in two experimental systems: (A) model system, in the presence of pig liver esterase or glutathione, reduced; (B) in C. albicans cell-free extract.
Mixtures containing a given conjugate at the initial concentration of 150 µM and pig liver esterase, 5 mg mL^−1 or 10 mM glutathione, reduced, in a total volume of 200 μL were incubated at 30 °C. Samples of 50 μL were collected at zero time, after 30 min, and after 120 min and subjected to HPLC-MS analysis.
(§3) The HPLC-MS system consisted of a liquid chromatograph, a degasser, a binary pomp, an auto-sampler, and a column oven, which was combined with an MS detector with an electrospray source (AJS ESI) and quadrupole analyzer (1260 Infinity II and 6470 Triple Quad LC/MS, Agilent Technologies, Waldbronn, Germany). The ChemStation software was used to control the LC-MS system and for data processing.
(§4) Chromatographic separations were performed on an Eclipse XDB-C18 column (150 mm × 4.6 mm, 5 μm). For the separation, a gradient of mobile phase A (H2O + 0.01% HCOOH) and mobile phase B (100% methanol) was used. The gradient profile was set as follows: 0 min—95% effluent A, 8 min—70% effluent A, 11 min—50% effluent A, 12 min—95% effluent A, 17 min—95% effluent A. The flow rate was 1 mL min^−1, the column temperature was 25 °C, and the injection volume was 20 μL.
(§5) The electrospray source operated in a negative mode. The data were collected in a MS scanning mode (MS2 SCAN) with the range 150–700 (m/z).

[2] = test system: C. albicans cell-free extract; format: in vitro ADME, Candida albicans; conditions: conjugate 150 µM, 30 °C, 0, 30, 120 min
Method: as §1
C. albicans cells were harvested from the culture in YPD medium in the logarithmic phase of growth and washed with PBS, pH 7.4. Then, cells were suspended in a minimal amount of PBS to an optical density OD660 ≈ 1.5. A sample of 1.5 mL of the cell suspension was put into the Lysing Matrix D, 2 mL tubes containing 1.4 mm ceramic spheres (MP Biomedicals). The tubes were vortexed 5 times for 2 min intervals, with 2 min breaks for cooling in the ice/water bath. Finally, the mixtures were centrifuged (10,000× g, 4 °C, 20 min), and the supernatant was pushed through the syringe filter, 0.22 μm pore size, to remove unbroken cells. The thus-obtained cell-free extract was kept at 4 °C and used no later than 5 h after preparation.
as §2
A given conjugate was dissolved in 4 mL of C. albicans cell-free extract to the initial concentration of 150 µM. Mixtures were incubated at 30 °C. Samples of 1 mL were collected at zero time, after 30 min, and after 120 min. The collected samples were immediately de-proteinized by centrifugation (4 °C, 5000× g, 10 min) in Amicon® Ultra-4 Centrifugal Filter Units, 3 kDa cutoff limit. Samples of 50 μL were collected from the filtrates and subjected to HPLC-MS analysis.
as §3, §4, §5

[3] = test system: Candida spp.; test: Antifungal in vitro activity, summary statements over the Candida strains tested; format: cell-based
Method: (§6) The antifungal in vitro activity of conjugates 24a–d and 35 was determined by the serial two-fold dilution method, using the 96-well microtiter plates, in two growth media, RPMI-1640 and YNB-AS, against seven yeast species from the Candida genus. The MIC50 and MIC90 values, i.e., concentrations at which cell growth was inhibited in 50% and 90%, respectively, were measured and compared to those of the intact cispentacin. The concentration values presented in Table 1 and Table 2 are expressed in mM units to allow the comparison of the compounds’ effectiveness at the molecular level. For data expressed in μg mL^−1 units, such comparison is not possible, since the molecular masses of conjugates (≈1755–2114 D range) are 14–16-fold higher than that of cispentacin (128.3 D).
(§7) Susceptibility testing was performed in two growth media: (a) RPMI-1640 w/o sodium bicarbonate, with L-glutamine + 2% glucose + 3.45% MOPS, pH adjusted to 7.0; (b) YNB-AS—Yeast Nitrogen Base w/o amino acids (contains ammonium sulfate 5 g L^−1) + 2% glucose. The in vitro growth inhibitory activity of antifungals was quantified by determination of MIC50 and MIC90 values by the serial two-fold dilution method, using the 96-well microtiter plates. Serial dilutions of cispentacin and its conjugates were prepared in the 4–0.015 mM range.
(§8) Conditions of the RPMI-1640-based assay were the same as outlined in the CLSI recommendations except for the end-point readout that was done by spectrophotometric determination of cell density at 660 nm. Turbidity in individual wells was measured with a microplate reader (Victor^3; Perkin Elmer). The 96-well microtiter plates were also used for the determination of in vitro growth inhibitory activity in YNB-AS medium. Individual wells were inoculated with 5 × 10^3 Candida cells mL^−1 from the overnight culture in YPD medium. The plates were incubated at 37 °C for 24 h, and then, turbidity was measured with a microplate reader at 660 nm, as described above for the RPMI-1640-based assay.
(§9) Values of MIC50 and MIC90 were read from the graphs of A660 vs. drug concentration and corresponded to the interpolated values of drug concentration at which A660 was 50% or 10% of that measured for the drug-free control.

[4] = test system: C. albicans ATCC 10231; test: Antifungal in vitro activity, serial two-fold dilution, RPMI-1640 medium; format: cell-based; conditions: Candida albicans, ATCC10231, >>1 = no growth inhibition at 1 mM
Method: (§10) The antifungal in vitro activity of conjugates 24a–d and 35 was determined by the serial two-fold dilution method, using the 96-well microtiter plates, in two growth media, RPMI-1640 and YNB-AS, against seven yeast species from the Candida genus. The MIC50 and MIC90 values, i.e., concentrations at which cell growth was inhibited in 50% and 90%, respectively, were measured and compared to those of the intact cispentacin. The concentration values presented in Table 1 and Table 2 are expressed in mM units to allow the comparison of the compounds’ effectiveness at the molecular level. […]
(§11) Susceptibility testing was performed in two growth media: (a) RPMI-1640 w/o sodium bicarbonate, with L-glutamine + 2% glucose + 3.45% MOPS, pH adjusted to 7.0; (b) YNB-AS—Yeast Nitrogen Base w/o amino acids (contains ammonium sulfate 5 g L^−1) + 2% glucose. The in vitro growth inhibitory activity of antifungals was quantified by determination of MIC50 and MIC90 values by the serial two-fold dilution method, using the 96-well microtiter plates. […]
(§12) Conditions of the RPMI-1640-based assay were the same as outlined in the CLSI recommendations except for the end-point readout that was done by spectrophotometric determination of cell density at 660 nm. Turbidity in individual wells was measured with a microplate reader (Victor^3; Perkin Elmer). […]

[5] = test system: C. albicans B3; test: as above; format: cell-based; conditions: Candida albicans, C. albicans B3 (fluconazole-sensitive isolate)
Method: as §6
(§13) The reference strains used in this study were Candida albicans ATCC 10231, Candida glabrata DSM 11226, and Candida krusei DSM 6128. C. albicans B3, B4, Gu4, and Gu5 clinical isolates were kindly provided by Joachim Morschhäuser, Würzburg, Germany. Gu4 and B3 are fluconazole-sensitive isolates obtained from early infection episodes, while Gu5 and B4 are the corresponding fluconazole-resistant isolates obtained from later episodes in the same patients treated with fluconazole. Strains were grown at 30 °C in YPD medium (2% glucose, 1% yeast extract, and 1% Bacto-Peptone) and stored on YPD agar plates containing 2% agar.
as §7, §8, §9

[6] = test system: C. albicans B4; test: as above; format: cell-based; conditions: Candida albicans, C. albicans B4 (fluconazole-resistant isolate)
Method: as §6, §13, §7, §8, §9

[7] = test system: C. albicans Gu4; test: as above; format: cell-based; conditions: Candida albicans, C. albicans Gu4 (fluconazole-sensitive isolate)
Method: as §6, §13, §7, §8, §9

[8] = test system: C. albicans Gu5; test: as above; format: cell-based; conditions: Candida albicans, C. albicans Gu5 (fluconazole-resistant isolate)
Method: as §6, §13, §7, §8, §9

[9] = test system: Candida glabrata DSM 11226; test: as above; format: cell-based; conditions: Nakaseomyces glabratus, DSM11226, C. glabrata
Method: as §6, §13, §7, §8, §9

[10] = test system: Candida krusei DSM 6128; test: as above; format: cell-based; conditions: Pichia kudriavzevii, DSM6128, C. krusei
Method: as §6, §13, §7, §8, §9

[11] = test system: C. albicans ATCC 10231; test: Antifungal in vitro activity, serial two-fold dilution, YNB-AS medium; format: cell-based; conditions: Candida albicans, ATCC10231, >>1 = no growth inhibition at 1 mM
Method: as §10, §11, §12

[12] = test system: C. albicans B3; test: as above; format: cell-based; conditions: Candida albicans, C. albicans B3 (fluconazole-sensitive isolate)
Method: as §6, §13, §7, §8, §9

[13] = test system: C. albicans B4; test: as above; format: cell-based; conditions: Candida albicans, C. albicans B4 (fluconazole-resistant isolate)
Method: as §6, §13, §7, §8, §9

[14] = test system: C. albicans Gu4; test: as above; format: cell-based; conditions: Candida albicans, C. albicans Gu4 (fluconazole-sensitive isolate)
Method: as §6, §13, §7, §8, §9

[15] = test system: C. albicans Gu5; test: as above; format: cell-based; conditions: Candida albicans, C. albicans Gu5 (fluconazole-resistant isolate)
Method: as §6, §13, §7, §8, §9

[16] = test system: Candida glabrata DSM 11226; test: as above; format: cell-based; conditions: Nakaseomyces glabratus, DSM11226, C. glabrata
Method: as §6, §13, §7, §8, §9

[17] = test system: Candida krusei DSM 6128; test: as above; format: cell-based; conditions: Pichia kudriavzevii, DSM6128, C. krusei
Method: as §6, §13, §7, §8, §9

SMILES: Cc1cc(C)c(C(C)(C)CC(=O)N[C@H]2CCC[C@H]2C(=O)O)c(OC(=O)CCCCCC(=O)N(CCCCNC(=O)CC[C@@H](C)[C@H]2CC[C@H]3[C@@H]4[C@H](OS(=O)(=O)O)C[C@@H]5C[C@H](OS(=O)(=O)O)CC[C@]5(C)[C@H]4C[C@H](OS(=O)(=O)O)[C@]23C)CCCNC(=O)CC[C@@H](C)[C@H]2CC[C@H]3[C@@H]4[C@H](OS(=O)(=O)O)C[C@@H]5C[C@H](OS(=O)(=O)O)CC[C@]5(C)[C@H]4C[C@H](OS(=O)(=O)O)[C@]23C)c1 [24c]
- cleavage / release of cispentacin (HPLC-MS) [1]: Presence of the released cispentacin was confirmed
- cleavage / release of cispentacin or its derivative (HPLC-MS) [2]: the product of a possible cleavage, with RT similar to that of cispentacin but with 17 D higher MW, was formed

SMILES: Cc1cc(C)c(C(C)(C)CC(=O)N[C@H]2CCC[C@H]2C(=O)O)c(OC(=O)CCCCCCC(=O)N(CCCCNC(=O)CC[C@@H](C)[C@H]2CC[C@H]3[C@@H]4[C@H](OS(=O)(=O)O)C[C@@H]5C[C@H](OS(=O)(=O)O)CC[C@]5(C)[C@H]4C[C@H](OS(=O)(=O)O)[C@]23C)CCCNC(=O)CC[C@@H](C)[C@H]2CC[C@H]3[C@@H]4[C@H](OS(=O)(=O)O)C[C@@H]5C[C@H](OS(=O)(=O)O)CC[C@]5(C)[C@H]4C[C@H](OS(=O)(=O)O)[C@]23C)c1 [24d]
- antifungal activity ([3]; RPMI-1640 medium): devoid of antifungal activity
- antifungal activity ([3]; both growth media (RPMI-1640 and YNB-AS)): inactive in both media
- antifungal activity ([3]; both growth media (RPMI-1640 and YNB-AS), listed as 26d): not active as an antifungal
- cleavage / release of cispentacin (HPLC-MS) [1]: Presence of the released cispentacin was confirmed
- cleavage / release of cispentacin or its derivative (HPLC-MS) [2]: the product of a possible cleavage, with RT similar to that of cispentacin but with 17 D higher MW, was formed
- cleavage / release of cispentacin or its derivative (HPLC-MS) ([2]; listed as 26d): found cleavable in the cell-free extract

SMILES: N[C@H]1CCC[C@H]1C(=O)O [CisP, cispentacin]
- MIC50 [4]: 80 µM (≈ 10.3 µg/mL)
- MIC90 [4]: 340 µM (≈ 43.9 µg/mL)
- MIC50 [5]: 210 µM (≈ 27.1 µg/mL)
- MIC90 [5]: 360 µM (≈ 46.5 µg/mL)
- MIC50 [6]: 340 µM (≈ 43.9 µg/mL)
- MIC90 [6]: 580 µM (≈ 74.9 µg/mL)
- MIC50 [7]: 260 µM (≈ 33.6 µg/mL)
- MIC90 [7]: 420 µM (≈ 54.2 µg/mL)
- MIC50 [8]: 410 µM (≈ 53 µg/mL)
- MIC90 [8]: 640 µM (≈ 82.7 µg/mL)
- MIC50 [9]: 510 µM (≈ 65.9 µg/mL)
- MIC90 [9]: > 1000 µM
- MIC50 [10]: 280 µM (≈ 36.2 µg/mL)
- MIC90 [10]: 570 µM (≈ 73.6 µg/mL)
- MIC50 [11]: 20 µM (≈ 2.58 µg/mL)
- MIC90 [11]: 100 µM (≈ 12.9 µg/mL)
- MIC50 [12]: 110 µM (≈ 14.2 µg/mL)
- MIC90 [12]: 150 µM (≈ 19.4 µg/mL)
- MIC50 [13]: 170 µM (≈ 22 µg/mL)
- MIC90 [13]: 280 µM (≈ 36.2 µg/mL)
- MIC50 [14]: 150 µM (≈ 19.4 µg/mL)
- MIC90 [14]: 180 µM (≈ 23.2 µg/mL)
- MIC50 [15]: 270 µM (≈ 34.9 µg/mL)
- MIC90 [15]: 390 µM (≈ 50.4 µg/mL)
- MIC50 [16]: 100 µM (≈ 12.9 µg/mL)
- MIC90 [16]: 500 µM (≈ 64.6 µg/mL)
- MIC50 [17]: 90 µM (≈ 11.6 µg/mL)
- MIC90 [17]: 150 µM (≈ 19.4 µg/mL)
